According to patent US20240025919A1, “AZA-TETRACYCLIC OXAZEPINE COMPOUNDS AND USES THEREOF” (Genentech, Inc., priority 2022, published 2024):
Values joined by “and” are separate entries in the source; they are usually repeats but may differ in a detail not shown here. Equal values may be shown once. Read-outs that look alike come from different tables or passages of the source.

Tests used:
[1] = target: KRAS G12D (Homo sapiens (Human), UniProt P01116, G12D); assay: KRAS G12D LoEnz Biochemical Assay, BODIPY-GDP Exchange TR-FRET (SOS1-mediated nucleotide exchange); details: read-out: KRas (G12D) GDP HTRF IC50
Chain of KRAS G12D (P01116-2 other isoform, or with tags, fused parts or gaps G12D): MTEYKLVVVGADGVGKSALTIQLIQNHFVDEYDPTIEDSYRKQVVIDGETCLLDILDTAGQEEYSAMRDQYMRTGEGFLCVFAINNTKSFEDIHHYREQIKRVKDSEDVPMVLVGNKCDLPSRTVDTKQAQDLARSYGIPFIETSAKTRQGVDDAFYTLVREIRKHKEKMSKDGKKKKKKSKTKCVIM

[2] = target: T1, KRAS WT (Homo sapiens (Human), UniProt P01116); assay: KRAS WT Biochemical Assay, BODIPY-GDP Exchange TR-FRET (Example 502; 0.06 nM KRAS WT, 15 nM GDP, 300 nM SOS1, 120-minute incubation); details: read-out: KRas HTRF IC50
T1 sequence (P01116-2 other isoform, or with tags, fused parts or gaps): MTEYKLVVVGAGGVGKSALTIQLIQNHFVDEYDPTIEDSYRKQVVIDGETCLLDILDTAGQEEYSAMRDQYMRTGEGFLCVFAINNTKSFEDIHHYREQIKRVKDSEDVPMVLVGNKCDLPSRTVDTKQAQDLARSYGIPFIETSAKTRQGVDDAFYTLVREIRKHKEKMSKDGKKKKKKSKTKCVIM
Summary of the method: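 Biotin-tagged recombinant KRAS WT (0.06 nM) preloaded with 15 nM GDP and Tb-streptavidin, 10 min RT, then exchange started with 300 nM SOS1 plus 300 nM BODIPY-GDP in HEPES pH 7.5 buffer with MgCl2. TR-FRET 520/490 ratio read after 120 min; normalized to DMSO and full-inhibition control; IC50 from 4-parameter fit.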

[3] = target: T1, KRAS WT; assay: KRAS WT Biochemical Assay, BODIPY-GDP Exchange TR-FRET (Example 501; 3 nM KRAS WT, 3 nM SOS1, 60-minute incubation); details: read-out: KRas(wt) GDP HTRF IC50
Summary of the method: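 SOS1-mediated exchange assay: 3 nM biotin-KRAS WT with terbium-streptavidin, started with 3 nM SOS1 and 300 nM BODIPY-GDP, HEPES pH 7.5 with MgCl2. TR-FRET (520/490 nm) read after 60 min; normalized to DMSO and full-inhibition control, IC50 from 4-parameter Hill fit.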

[4] = tested on: PC-9 (KRAS wild type human lung adenocarcinoma cell line); assay: KRAS 3D-Cell Proliferation Assay, PC-9 (CellTiter-Glo 3D, 7 days); type: cell-based; details: PC-9 3D culture, read-out: Prolif PC9 3D ATP IC50
Protocol: Example 503: KRAS 3D-Cell Proliferation Assays. Cellular potencies of compounds are assessed by evaluating inhibition of proliferation in 3D cultures of homozygous mutant KRAS G12D human pancreatic cell lines (AsPC-1 and HPAC) as compared to a KRAS wild type human lung adenocarcinoma cell line (PC-9 and/or H1975). Cells are seeded into 384-well black round-bottom, ultra-low attachment assay plates in 50 uL cell growth medium (RPMI-1640 with 10% fetal bovine serum and 2 mM L-glutamine). After overnight incubation at 37° C. and 5% CO2, compounds solubilized in DMSO are added as dilution series to the wells in a total volume of 150 nL (0.3% DMSO final). The cells are incubated for 7 days at 37° C. and 5% CO2. Cell proliferation is quantitated by addition of 40 uL/well of CellTiter-GloO 3D (Promega), and the well contents are mixed 20× at high speed using liquid handling automation workstation (Bravo with 384-well head) and centrifuged at 1500 rpm for 2 minutes to eliminate bubbles. This reagent in combination with mechanical disruption releases the cellular ATP to promote activity in a luciferase-based enzyme/substrate chemiluminescent detection system. After a 30-minute incubation under ambient conditions with shaking and an additional 10 minutes without shaking, the luminescence is read on a plate reader (e.g. EnVision [PerkinElmer]). The results are normalized to percent inhibition based on the following control samples: DMSO (0% inhibition) and 1 uM staurosporine (100% inhibition). The normalized luminescence results are plotted against compound concentration, and the data are fit to a 4-parameter Hill equation to determine the IC50 values.

Structure (SMILES)	IC50 [1]	IC50 [2]	IC50 [3] [nM]	IC50 ([4]; Homo sapiens, PC-9, 168 h) [nM]	IC50 [4] [nM]
C#Cc1cccc2cc(O)cc(-c3nc4c5c(nc(OC[C@@]67CCCN6C[C@H](F)C7)nc5c3F)N3C[C@H]5CC[C@H](N5)[C@H]3CO4)c12 [Compound 3, 5-ethynyl-4-((5aS,6S,9R)-1-fluoro-12-(((2R,7aS)-2-fluorotetrahydro-1H-pyrrolizin-7a(5H)-yl)methoxy)-5a,6,7,8,9,10-hexahydro-5H-4-oxa-3,10a,11,13,14-pentaaza-6,9-methanonaphtho[1,8-ab]heptalen-2-yl)naphthalen-2-ol]	0.058 nM	0.757 nM	0.517	20000	–
Cc1cc(N)cc(-c2nc3c4c(nc(OC[C@@]56CCCN5C[C@H](F)C6)nc4c2F)N2C[C@H]4CC[C@H](N4)[C@H]2[C@H](C)O3)c1C(F)(F)F [Compound 16, 3-((5S,5aS,6S,9R)-1-fluoro-12-(((2R,7aS)-2-fluorotetrahydro-1H-pyrrolizin-7a(5H)-yl)methoxy)-5-methyl-5a,6,7,8,9,10-hexahydro-5H-4-oxa-3,10a,11,13,14-pentaaza-6,9-methanonaphtho[1,8-ab]heptalen-2-yl)-5-methyl-4-(trifluoromethyl)aniline]	0.138 nM	0.484 nM	0.668	20000	–
C[C@@H]1Oc2nc(-c3nc(N)cc4ccccc34)c(F)c3nc(OC[C@@]45CCCN4C[C@H](F)C5)nc(c23)N2C[C@H]3CC[C@H](N3)[C@@H]12 [Compound 41, 1-((5S,5aS,6S,9R)-1-fluoro-12-(((2R,7aS)-2-fluorotetrahydro-1H-pyrrolizin-7a(5H)-yl)methoxy)-5-methyl-5a,6,7,8,9,10-hexahydro-5H-4-oxa-3,10a,11,13,14-pentaaza-6,9-methanonaphtho[1,8-ab]heptalen-2-yl)isoquinolin-3-amine]	6.35 nM	–	296	20000	–
Cc1cc(N)nc(-c2nc3c4c(nc(OC[C@@]56CCCN5C[C@H](F)C6)nc4c2F)N2C[C@H]4CC[C@H](N4)[C@H]2[C@H](C)O3)c1C(F)(F)F [Compound 43, 6-((5S,5aS,6S,9R)-1-Fluoro-12-(((2R,7aS)-2-fluorotetrahydro-1H-pyrrolizin-7a(5H)-yl)methoxy)-5-methyl-5a,6,7,8,9,10-hexahydro-5H-4-oxa-3,10a,11,13,14-pentaaza-6,9-methanonaphtho[1,8-ab]heptalen-2-yl)-4-methyl-5-(trifluoromethyl)pyridin-2-amine]	0.598 nM	–	16.6	20000	–
Cc1cc(N)nc(-c2nc3c4c(nc(OC[C@@]56CCCN5C[C@H](F)C6)nc4c2F)N2C[C@H]4CC[C@H](N4)[C@H]2CO3)c1C(F)(F)F [Compound 44, 6-((5aS,6S,9R)-1-fluoro-12-(((2R,7aS)-2-fluorotetrahydro-1H-pyrrolizin-7a(5H)-yl)methoxy)-5a,6,7,8,9,10-hexahydro-5H-4-oxa-3,10a,11,13,14-pentaaza-6,9-methanonaphtho[1,8-ab]heptalen-2-yl)-4-methyl-5-(trifluoromethyl)pyridin-2-amine]	0.68 nM	–	59	20000	–
C#Cc1cccc2cc(O)cc(-c3nc4c5c(ncnc5c3F)N3C[C@H]5CC[C@H](N5)[C@H]3[C@H](C)O4)c12 [Compound 54, 5-ethynyl-4-((5S,5aS,6S,9R)-1-fluoro-5-methyl-5a,6,7,8,9,10-hexahydro-5H-4-oxa-3,10a,11,13,14-pentaaza-6,9-methanonaphtho[1,8-ab]heptalen-2-yl)naphthalen-2-ol]	17.8 nM	–	1980	20000	–
C#Cc1c(F)ccc2cccc(-c3nc4c5c(ncnc5c3F)N3C[C@H]5CC[C@H](N5)[C@H]3[C@H](C)O4)c12 [Compound 56, (5S,5aS,6S,9R)-2-(8-ethynyl-7-fluoronaphthalen-1-yl)-1-fluoro-5-methyl-5a,6,7,8,9,10-hexahydro-5H-4-oxa-3,10a,11,13,14-pentaaza-6,9-methanonaphtho[1,8-ab]heptalene]	942 nM	–	46500	20000	–
C[C@@H]1Oc2nc(-c3cc(N)c(F)cc3C(F)(F)F)c(F)c3nc(OC[C@]45CCN4CC(F)(F)C5)nc(c23)N2C[C@H]3CC[C@H](N3)[C@@H]12 [Compound 71, 5-((5S,5aS,6S,9R)-12-(((R)-3,3-Difluoro-1-azabicyclo[3.2.0]heptan-5-yl)methoxy)-1-fluoro-5-methyl-5a,6,7,8,9,10-hexahydro-5H-4-oxa-3,10a,11,13,14-pentaaza-6,9-methanonaphtho[1,8-ab]heptalen-2-yl)-2-fluoro-4-(trifluoromethyl)aniline]	3.51 nM	313 nM	–	20000	–
C[C@@H]1Oc2nc(-c3cnccc3C(F)(F)F)c(F)c3nc(OC[C@]45CCN4CC(F)(F)C5)nc(c23)N2C[C@H]3CC[C@H](N3)[C@@H]12 [Compound 78, (5S,5aS,6S,9R)-12-(((R)-3,3-Difluoro-1-azabicyclo[3.2.0]heptan-5-yl)methoxy)-1-fluoro-5-methyl-2-(4-(trifluoromethyl)pyridin-3-yl)-5a,6,7,8,9,10-hexahydro-5H-4-oxa-3,10a,11,13,14-pentaaza-6,9-methanonaphtho[1,8-ab]heptalene]	867 nM	200000 nM	–	20000	–
C#Cc1c(F)ccc2cc(O)cc(-c3nc4c5c(nc(OC[C@@]67CCCN6C[C@H](F)C7)nc5c3F)N3C[C@H]5CC[C@H](N5)[C@H]3CO4)c12 [Compound 81, 5-Ethynyl-6-fluoro-4-((5aS,6S,9R)-1-fluoro-12-(((2R,7aS)-2-fluorotetrahydro-1H-pyrrolizin-7a(5H)-yl)methoxy)-5a,6,7,8,9,10-hexahydro-5H-4-oxa-3,10a,11,13,14-pentaaza-6,9-methanonaphtho[1,8-ab]heptalen-2-yl)naphthalen-2-ol]	0.085 nM	0.448 nM	–	20000	–
C[C@@H]1Oc2nc(-c3nc(N)c(F)cc3C(F)(F)F)c(F)c3nc(OC[C@@]45CCCN4C[C@H](F)C5)nc(c23)N2C[C@H]3CC[C@H](N3)[C@@H]12 [Compound 84, 3-Fluoro-6-((5S,5aS,6S,9R)-1-fluoro-12-(((2R,7aS)-2-fluorotetrahydro-1H-pyrrolizin-7a(5H)-yl)methoxy)-5-methyl-5a,6,7,8,9,10-hexahydro-5H-4-oxa-3,10a,11,13,14-pentaaza-6,9-methanonaphtho[1,8-ab]heptalen-2-yl)-5-(trifluoromethyl)pyridin-2-amine]	24.9 nM	4310 nM	–	20000	–
C[C@@H]1Oc2nc(-c3nc(N)ccc3C(F)(F)F)c(F)c3nc(OC[C@@]45CCCN4C[C@H](F)C5)nc(c23)N2C[C@H]3CC[C@H](N3)[C@@H]12 [Compound 85, 6-((5S,5aS,6S,9R)-1-fluoro-12-(((2R,7aS)-2-fluorotetrahydro-1H-pyrrolizin-7a(5H)-yl)methoxy)-5-methyl-5a,6,7,8,9,10-hexahydro-5H-4-oxa-3,10a-11,13,14-pentaaza-6,9-methanonaphtho[1,8-ab]heptalen-2-yl)-5-(trifluoromethyl)pyridin-2-amine]	3.28 nM	678 nM	–	20000	–
C[C@@H]1Oc2nc(-c3nc(N)c(F)cc3C(F)(F)F)c(F)c3nc(OC[C@]45CCN4CC(F)(F)C5)nc(c23)N2C[C@H]3CC[C@H](N3)[C@@H]12 [Compound 87, 6-((5S,5aS,6S,9R)-12-(((R)-3,3-Difluoro-1-azabicyclo[3.2.0]heptan-5-yl)methoxy)-1-fluoro-5-methyl-5a,6,7,8,9,10-hexahydro-5H-4-oxa-3,10a,11,13,14-pentaaza-6,9-methanonaphtho[1,8-ab]heptalen-2-yl)-3-fluoro-5-(trifluoromethyl)pyridin-2-amine]	68.9 nM	16100 nM	–	20000	–
Cc1cc(N)c(F)c(-c2nc3c4c(nc(OC[C@@]56CCN5CC(F)(F)C6)nc4c2F)N2C[C@H]4CC[C@H](N4)[C@H]2[C@H](C)O3)c1C(F)(F)F [Compound 92, 3-((5S,5aS,6S,9R)-12-(((S)-3,3-Difluoro-1-azabicyclo[3.2.0]heptan-5-yl)methoxy)-1-fluoro-5-methyl-5a,6,7,8,9,10-hexahydro-5H-4-oxa-3,10a,11,13,14-pentaaza-6,9-methanonaphtho[1,8-ab]heptalen-2-yl)-2-fluoro-5-methyl-4-(trifluoromethyl)aniline]	0.76 nM and 1.01 nM	34.9 nM and 148 nM	–	–	8130
